Measurements: the supplement of paper PMC4862054

Experiments:
Settings in all cases: incubation time: 72 h
[1] = test system: MFM-223; test: normalised response (% of control), CellTiter-Glo; higher = more viable cells (100 = DMSO, 0 = benzethonium chloride kill control)
Summary of the method: (§1)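 The table gives the normalised signal for a single concentration in each entry. Breast cancer cell lines were seeded (20 µl suspension) into 384-well plates holding compound at 5 concentrations in 10-fold steps over a compound-specific 10,000-fold range and incubated 72 h, then read for CellTox Green fluorescence (485/520 nm) and CellTiter-Glo luminescence. Normalisation on each plate used 0.1 % DMSO (100) and a positive kill control (0).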

[2] = test system: SK-BR-3; test: as above
Summary of the method: as §1

[3] = test system: MDA-MB-436; test: as above
Summary of the method: as §1

[4] = test system: MDA-MB-468; test: as above
Summary of the method: as §1

[5] = test system: MFM-223; test: normalised response (% of control), CellTox Green; higher = less cell death (100 = DMSO, 0 = benzethonium chloride kill control)
Summary of the method: as §1

[6] = test system: CAL-120; test: as above
Summary of the method: as §1

[7] = test system: BT-549; test: as above
Summary of the method: as §1

[8] = test system: HCC1599; test: as above
Summary of the method: as §1

[9] = test system: CAL-51; test: as above
Summary of the method: as §1

[10] = test system: CAL-85-1; test: as above
Summary of the method: as §1

[11] = test system: CAL-148; test: as above
Summary of the method: as §1

[12] = test system: BT-474; test: as above
Summary of the method: as §1

[13] = test system: MCF-10A; test: as above
Summary of the method: as §1

[14] = test system: MDA-MB-231; test: as above
Summary of the method: as §1

[15] = test system: HCC1143; test: as above
Summary of the method: as §1

[16] = test system: HDQ-P1; test: as above
Summary of the method: as §1

[17] = test system: MDA-MB-436; test: as above
Summary of the method: as §1

[18] = test system: MDA-MB-468; test: as above
Summary of the method: as §1

[19] = test system: Hs578T; test: as above
Summary of the method: as §1

[20] = test system: DU-4475; test: as above
Summary of the method: as §1

[21] = test system: MDA-MB-453; test: as above
Summary of the method: as §1

[22] = test system: HCC1937; test: as above
Summary of the method: as §1

Row | Structure (SMILES) | normalised response [1] [%] | normalised response [2] [%] | normalised response [3] [%] | normalised response [4] [%] | normalised response [5] [%] | normalised response [6] [%] | normalised response [7] [%] | normalised response [8] [%] | normalised response [9] [%] | normalised response [10] [%] | normalised response [11] [%] | normalised response [12] [%] | normalised response [13] [%] | normalised response [14] [%] | normalised response [15] [%] | normalised response [16] [%] | normalised response [17] [%] | normalised response [18] [%] | normalised response [19] [%] | normalised response [20] [%] | normalised response [21] [%] | normalised response [22] [%]
1 | Cc1c(N)nc([C@H](CC(N)=O)NC[C@H](N)C(N)=O)nc1C(=O)N[C@H](C(=O)N[C@H](C)[C@@H](O)[C@H](C)C(=O)N[C@H](C(=O)NCCc1nc(-c2nc(C(=O)NCCC[S+](C)C)cs2)cs1)[C@@H](C)O)[C@@H](OC1OC(CO)C(O)C(O)C1OC1OC(CO)C(O)C(OC(N)=O)C1O)c1cnc[nH]1 (stereo not given in full) [Bleomycin] (1000 nM) | 99.6 | 84.8 | 82.3 | 86.1 | 88 | 92.9 | 92 | 94.8 | 44.5 | 92.7 | 58.4 | 98.2 | 92.5 | 67.9 | 99.9 | 54.8 | 84.5 | 138 | 67.4 | 97.5 | 99.1 | 
2 | Cc1c(N)nc([C@H](CC(N)=O)NC[C@H](N)C(N)=O)nc1C(=O)N[C@H](C(=O)N[C@H](C)[C@@H](O)[C@H](C)C(=O)N[C@H](C(=O)NCCc1nc(-c2nc(C(=O)NCCC[S+](C)C)cs2)cs1)[C@@H](C)O)[C@@H](OC1OC(CO)C(O)C(O)C1OC1OC(CO)C(O)C(OC(N)=O)C1O)c1cnc[nH]1 (stereo not given in full) [Bleomycin] (10000 nM) |  |  |  |  | 94.4 | 99.4 | 82.7 | 84 | 43.9 | 81.7 | 47.9 | 93.2 | 112 | 78 | 93.6 | 95.6 | 68 | 201 | 24.7 | 92.1 | 90.6 | 80.1
3 | Cc1cc2c(F)c(Oc3ncnn4cc(OC[C@@H](C)O)c(C)c34)ccc2[nH]1 [Brivanib] (100 nM) | 107 | 103 | 110 | 108 | 102 | 104 | 117 | 99.8 | 99.4 | 103 | 104 | 100 | 107 | 115 | 79.8 | 106 | 81.2 | 100 |  | 104 | 103 | 101
4 | Cc1cc2c(F)c(Oc3ncnn4cc(OC[C@@H](C)O)c(C)c34)ccc2[nH]1 [Brivanib] (1000 nM) |  |  |  |  | 98.6 | 100 | 95.7 | 80.2 | 101 | 67.4 | 99.3 | 97.9 | 105 | 102 | 104 | 68.8 | 68.3 | 99.9 | 98.4 | 102 | 92.5 | 112
5 | CCCCCOC(=O)Nc1nc(=O)n([C@@H]2O[C@H](C)[C@@H](O)[C@H]2O)cc1F [Capecitabine] (10000 nM) |  |  |  |  |  | 90.2 | 117 | 102 | 99.4 | 87.2 | 99.5 | 97.2 | 74.1 | 110 | 122 | 94.7 | 103 | 100 | 56.1 | 97.5 | 104 | 87.1
6 | CC(C)C[C@H](NC(=O)[C@H](CCc1ccccc1)NC(=O)CN1CCOCC1)C(=O)N[C@@H](Cc1ccccc1)C(=O)N[C@@H](CC(C)C)C(=O)[C@@]1(C)CO1 [Carfilzomib] (1000 nM) |  |  |  |  | 55.2 | -0.18 | 62.5 | 99.5 | 15.1 | -74.2 | 12.2 | 45.7 | -56 | -0.32 | 72.1 | -14.6 | 38.2 | -84 | -63.5 | 87.3 | 91.3 | 32.8
7 | CCN(CC)CCOc1ccc(C(=C(Cl)c2ccccc2)c2ccccc2)cc1 [Clomifene] (10000 nM) |  |  |  |  | 40.9 |  | 82.5 | 48.6 | 109 | 25.3 | 79.6 | 5.17 | 60.3 | -87.9 | 112 |  | 89.1 | 93.8 | -60.1 | 53.4 | 18.9 | -34.5
8 | CC(C)C(=O)Nc1ccc([N+](=O)[O-])c(C(F)(F)F)c1 [Flutamide] (10000 nM) |  |  |  |  | 89 | 98.1 | 111 | 103 | 100 | 103 |  | 92.6 | 106 | 112 | 96.4 | 92.3 | 75.1 | 124 | 124 | 98.6 | 102 | 101
9 | NC(=O)NO [Hydroxyurea] (10000 nM) | 105 | 110 | 97.7 | 107 | 79.9 | 95.1 | 115 | 103 | 69.1 | 116 | 98.2 | 100 | 99.2 | 113 | 98.7 |  | 84.6 | 81.7 |  | 103 | 106 | 
